The subject of assay [1] is F. intonsa antennae. The assay is described as follows: Electroantennogram (EAG) assay. Details: species or system Frankliniella intonsa. As to the method: The FintCSP1, FintCSP2, FintOBP, FintOR, FoccCSP, and enhanced green fluorescent protein (EGFP) coding sequences were obtained from GenBank under accession numbers MT199111, MT211602, OK067245, MT211603, AEP27186.1, and U55761.1, respectively. Primers were designed using Primer Premier 5.0, and the T7 promoter sequence (5′-[…]-3′) was added to the 5′ end of each primer (S1 Table). DNA fragments containing T7 promoter sequences were amplified by PCR using pEASY-T1/target gene or pUC-EGFP (preserved in the laboratory) plasmid DNA as template. Then, a double-stranded RNA (dsRNA) was produced from each target gene using the HiScribe T7 Quick High Yield RNA Synthesis Kit (New England Biolabs) according to the manufacturer’s instructions. Six hundred 2-day-old female F. intonsa or two hundred 2-day-old female F. occidentalis adults were anesthetized using CO2 and microinjected with 40 nL (3 μg/μL) dsRNA (dsFintCSP1 dsFintCSP2, dsFintOBP, dsFintOR or dsFoccCSP or dsEGFP) using a CellTram Oil microinjector (Eppendorf, Hamburg, Germany). The injected thrips were kept on broad beans in an artificial climate incubator as described above and used in subsequent RNAi experiments. Three biological replicates were conducted for each treatment with each dsRNA.
At 24 h after dsRNA injection, the electrophysiological responses of F. intonsa antennae to six volatile components (i.e., m-cymene, cis-3-hexenal, (+)-2-carene, trans-2-hexenal, α-phellandrene, and α-humulene) or F. occidentalis antennae to cis-3-hexenal were recorded using EAG. Antennae of female adult thrips were cut off at the base, and the distal terminus was carefully removed. The tested compounds were dissolved in liquid paraffin, with pure liquid paraffin used as a negative control. An Ag-AgCl2 glass electrode and Kaissling electrode solution were used in the experiment according to Tian et al.. The base of the antenna was inserted into the glass capillary filled with electrode solution at the end of the reference electrode; the top of the antenna was connected to the glass capillary at the end of the recording electrode to ensure no bubbles in the glass capillary. After successful connection, the antennae were stimulated with each chemical in the following order: liquid paraffin, volatile compounds, and liquid paraffin. Stimulus time was 0.2 s with each stimulus at 40 s intervals. At least 10 antennae were tested for each volatile compound. The EAG values to volatile compounds were calculated using the following equation: absolute value of EAG reaction = reaction value of the tested sample—average value of two control measurements.

The target of assay [2] is recombinant wild-type FoccCSP (Frankliniella occidentalis, UniProt G4Y3X1). The assay is described as follows: Fluorescence (1-NPN) binding and competitive binding assay, wild-type FoccCSP. The note with it: wild-type FoccCSP, displacement of 1-NPN, both 2 μM. The procedure:
FintCSP1 and FoccCSP DNA were released from pEASY-T1/FintCSP1 and pEASY-T1/FoccCSP, respectively, by restriction digestion with BamHI and XhoI and cloned into the pET-30a vector (Invitrogen). The resulting construct was transformed into Transetta (DE3) Escherichia coli competent cells (Transgen). The production of recombinant FintCSP1 and FoccCSP was induced by addition of isopropyl-β-D-1-thiogalactopyranoside (IPTG, 0.2 mM) at 15°C and purified by Ni ion affinity chromatography (Sangon Biotech, Shanghai, China). The target protein was verified by 15% SDS-PAGE, and its concentration was determined with a BCA protein assay kit (Thermo Scientific, Rockford, IL, USA). The recombinant purified protein was stored at −20°C until use.
(§1) The binding affinity of FintCSP1 and FoccCSP to the fluorescent probe N-phenyl-1-naphthylamine (1-NPN) was tested using a Spectramax M2 fluorescence spectrometer (Molecular Devices, USA) as reported previously. Volatile compounds and 1-NPN were first dissolved to a concentration of 1 mM in HPLC-grade methanol and dissolved to their indicated final concentration (2–20 μM) to titrate 2 μM protein solutions resuspended in 50 mM Tris-HCl (pH 7.4). The 1-NPN/FintCSP1 or 1-NPN/FoccCSP mixture was excited at 280 nm, and the emission spectra were recorded at 415 nm. The binding constants (Kd) of FintCSP1 or FoccCSP to 1-NPN were calculated by Scatchard analysis using Prism 5 software (GraphPad, La Jolla, CA, USA). Assuming a protein activity of 100% and that the volatile compound binds to the protein in a 1:1 ratio at saturation, the dissociation constants (Ki) of FintCSP1 or FoccCSP for each ligand were calculated according to the IC50 (the concentration when the ligand replaces 50% of the probe) value of the volatile compounds. The Ki values were calculated according to the following equation: Ki = [IC50]/(1 + [1-NPN]/K1-NPN), where [1-NPN] is the free concentration of 1-NPN, and K1-NPN is the Kd of the 1-NPN/FintCSP1 or 1-NPN/FoccCSP.

Assay [3] concerns the target FoccCSP-Val132Ala (Frankliniella occidentalis, UniProt G4Y3X1, V132A). In words: Fluorescence (1-NPN) binding and competitive binding assay, FoccCSP mutant (negative control residue). As to the method:
as §1
To verify the key amino acids of FintCSP1 and FoccCSP that bind to cis-3-hexenal, six amino acid residues of FintCSP1 were mutated (Lys26Ala, Phe27Ala, Thr28Ala, Glu67Ala, Ser84Ala, and the negative control residue Val132Ala) and nine amino acid residues of FoccCSP were mutated (Lys26Ala, Phe27Ala, Thr28Ala, Thr29Ala, Tyr31Ala, Asp64Ala, Glu67Ala, Gln87Ala, and the negative control residue Val132Ala) with the Fast Mutagenesis System Kit (Transgen Biotech, Beijing, China) using the pET-30a/FintCSP1 and pET-30a/FoccCSP plasmid DNA as template, respectively. Specific primers were designed using Primer Premier 5.0 according to the instructions of the Fast Mutagenesis System Kit (S1 Table). After validation by sequencing, each recombinant variant protein was produced and purified as described above, and their binding affinity to cis-3-hexenal was measured as described above.

FoccCSP-Val132Ala, sequence (G4Y3X1 entry or part of it V132A): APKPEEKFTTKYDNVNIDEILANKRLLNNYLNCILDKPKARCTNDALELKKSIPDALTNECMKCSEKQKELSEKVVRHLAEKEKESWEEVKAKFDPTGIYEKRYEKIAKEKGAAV
recombinant wild-type FoccCSP, sequence (G4Y3X1 entry or part of it): as the sequence (G4Y3X1 entry or part of it V132A) above, with A113V counted along it

Consider `CC/C=C\CC=O` [cis-3-hexenal], for which, in assay [1] (10 mg/L in liquid paraffin, excised F. intonsa antennae), the EAG peak amplitude result is on record as “–0.077 mV”. For the same compound, in assay [1] (dsFintCSP1-injected compared to dsEGFP-injected F. intonsa, 24 h after injection), the “EAG response of FintCSP1-silenced antennae (in words)” value is “significantly lower response”. In addition, the IC50 came out at 28.8 ± 0.45 µM in assay [2] (50 mM Tris-HCl pH 7.4) and 28.7 ± 0.12 µM in assay [3]. Besides, the figures for the Ki in assay [2] (pH 7.4) and in assay [3] were 23.4 ± 0.36 µM and 23.69 ± 0.1 µM, respectively. Besides, the “binding to cis-3-hexenal (in words)” value in assay [3] (FoccCSP-Val132Ala compared to the wild-type protein) is “only a minor change in binding”.

These data come from PMC10194981, “Chemosensory protein regulates the behavioural response of Frankliniella intonsa and Frankliniella occidentalis to tomato zonate spot virus–Infected pepper (Capsicum annuum)” (PLOS Pathogens, 2023).
